The source of these data is ChEMBL document CHEMBL1146784, “Human ACAT-1 and -2 inhibitory activities of saucerneol B, manassantin A and B isolated from Saururus chinensis” (Bioorg Med Chem Lett, 2004).

Test [1] has as its target T1, Sterol O-acyltransferase 2 (Homo sapiens, UniProt O75908).
T1 sequence (O75908 whole entry): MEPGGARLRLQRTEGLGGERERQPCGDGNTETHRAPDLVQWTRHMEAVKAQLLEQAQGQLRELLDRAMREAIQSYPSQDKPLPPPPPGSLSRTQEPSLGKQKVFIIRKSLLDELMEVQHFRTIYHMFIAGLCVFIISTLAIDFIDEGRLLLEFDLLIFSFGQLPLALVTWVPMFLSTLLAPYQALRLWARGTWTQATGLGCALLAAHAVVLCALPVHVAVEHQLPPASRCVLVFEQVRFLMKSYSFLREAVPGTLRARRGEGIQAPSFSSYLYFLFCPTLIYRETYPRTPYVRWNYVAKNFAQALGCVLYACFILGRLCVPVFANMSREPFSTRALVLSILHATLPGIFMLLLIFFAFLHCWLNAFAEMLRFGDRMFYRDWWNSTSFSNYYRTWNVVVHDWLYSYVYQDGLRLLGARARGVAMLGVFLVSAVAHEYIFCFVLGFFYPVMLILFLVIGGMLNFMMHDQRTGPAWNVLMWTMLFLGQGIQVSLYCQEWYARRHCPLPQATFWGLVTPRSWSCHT
Put plainly: (§1) Concentration required to inhibit Acyl coenzyme A:cholesterol acyltransferase 2.

Test [2] deals with T2, Sterol O-acyltransferase 2 (Homo sapiens) (UniProt O75908).
T2 sequence (whole entry): T1 sequence (O75908 whole entry)
The test is described as §1. The following applies: concentration not given here.

The species named for another test is Mus musculus. Description: Effect against body weight of mice when treated with 0.1% wt/wt diet of compound for 10 days; On day 0 =21.8 g. Type of test: functional.

For `COc1ccc(C(O)C(C)Oc2ccc([C@H]3O[C@H](c4ccc(OC(C)C(O)c5ccc(OC)c(OC)c5)c(OC)c4)[C@H](C)[C@H]3C)cc2OC)cc1OC` (stereo partly drawn), the 50% inhibitory concentration (IC50) – broadly, the concentration needed to halve the response being measured – in test [1] turned out to be 39 µM.
`COc1ccc(C(O)C(C)Oc2ccc([C@H]3O[C@H](c4ccc(OC(C)C(O)c5ccc6c(c5)OCO6)c(OC)c4)[C@H](C)[C@H]3C)cc2OC)cc1OC` (stereo partly drawn): the inhibition (in general, the change of the read-out against control, counted positive when it falls) in test [2] was 32%.
In the test filed under Mus musculus, `CC(C)(Sc1cc(C(C)(C)C)c(O)c(C(C)(C)C)c1)Sc1cc(C(C)(C)C)c(O)c(C(C)(C)C)c1` [PROBUCOL] returned a Body weight of 23.7 g.
